The source of these data is PubChem BioAssay (NCI).

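Values below derive from 48-hour exposures of cells grown in 96-well plates, with endpoints linearly interpolated between the two concentrations bracketing the appropriate inhibition level. TGI is the concentration that stops growth completely.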

What all share (experiment): NCI tumour cell line growth inhibition, 48 h
In test [1] the test system is 786-0 renal.
Test [2] deals with A549 NSCLC.
For test [3], the system named is HCC-2998 colon.
Test [4] concerns HCT-15 colon.
In test [5] the test system is HL-60(TB) leukemia.
Test [6] relates to M14 melanoma.
The subject of test [7] is MOLT-4 leukemia.
For test [8], the system named is OVCAR-4 ovarian.
Test [9] relates to RXF 393 renal.
Test [10] has as its system SF-268 CNS.
In test [11] the test system is SF-295 CNS.

Take `Cn1c(-c2cccc([N+](=O)[O-])c2)[n+](C)c2ccccc21`: the TGI in [1], in [2], in test [3], in test [4], in test [5] and in test [6] was more than 100 µM throughout. Also, the TGI in test [7], in [8], in test [9], in test [10] and in [11] was more than 100 µM each time.

With `Cc1ccc(S(=O)(=O)NNCNC(=O)c2ccccc2)cc1`, the TGI is more than 100 µM in test [1]; more than 100 µM in test [2]; more than 100 µM in test [3]; more than 100 µM in test [4]; 48.2 µM in test [5]; more than 100 µM in test [6]. Further, the TGI in test [7], in test [8], in test [9], in test [10] and in [11] was more than 100 µM in each case.

In the case of `NC(N)=Nc1ccc(CC(N)C(=O)O)cc1` (configuration not stated), the TGI in test [1], in test [2], in [3], in [4], in test [5] and in [6] was more than 12.5 µM each time. Also, the TGI in test [7], in test [8], in test [9], in test [10] and in test [11] was more than 12.5 µM each time.

For the compound `C=C(C)[C@@H]1CCC2=C[C@H](OC2=O)[C@@]2(C)C[C@@H]2C2=CC(C)=C(O2)[C@H]1O`, the TGI in [1], in test [2], in test [3], in test [4], in test [5] and in test [6] was more than 75 µM each time. Moreover, the TGI in [7], in test [8], in test [9], in [10] and in [11] was more than 75 µM each time.

With `CCCCCCCCCCCCCCCCCCN(C)CC(COP(=O)([O-])OCC[N+](C)(C)C)OC` (configuration not stated), the TGI in test [1] was 14.7 µM; in test [2], 46.8 µM; in [3], 24.2 µM; in test [4], 23.5 µM; in test [5], 11.1 µM; in test [6] it was 29.6 µM. For the same compound, the TGI in [7] stood at 11.3 µM; in test [8] it was 29.6 µM; in test [9] it was 8.55 µM; in test [10], 27.5 µM; in [11] it was 23.9 µM.

In the case of `Cc1ccnc(NC(NC(=O)c2ccccc2)(C(F)(F)F)C(F)(F)F)c1`, the TGI in test [1], in [2], in test [3], in test [4], in [5] and in test [6] was more than 100 µM in each case. The TGI in test [7], in test [8], in [9], in test [10] and in [11] was more than 100 µM in each case.

Regarding `CO/N=C(\C)c1cccc(Nc2c3ccccc3nc3occc23)c1`, the TGI in test [1] was determined as 29.7 µM; in test [2], 57.3 µM; in test [3] it was 20.4 µM; in test [4] it was 50.4 µM; in [5], 13.6 µM; in test [6], 25.7 µM. The TGI in test [7] is 37.9 µM; in test [8] it was 18 µM; in test [9] it was 5.87 µM; in [10], 31.8 µM; in test [11], 18.4 µM.

Take `Cc1cc(=O)oc2c(CNC(Cc3ccccc3)C(=O)O)c(O)ccc12` (configuration not stated): the TGI in test [1], in test [2], in [3], in test [4], in test [5] and in [6] was more than 100 µM throughout. Further, the TGI in test [7], in test [8], in test [9], in [10] and in test [11] was more than 100 µM in each case.

Consider `C/C(=N\NC(=S)NCCCNC(=S)N/N=C(\C)c1ccccn1)c1ccccn1`, for which the TGI was 6.07 µM in test [1]; more than 49.8 µM in test [2]; more than 59.1 µM in [3]; more than 30.7 µM in [4]; more than 30.2 µM in [5]; 4.08 µM in test [6]. Further, the TGI was more than 100 µM in [7]; more than 54 µM in [8]; 14.7 µM in test [9]; 21 µM in [10]; 46.1 µM in test [11].

With `CCOC(=O)CCC(NC(=O)c1ccc(OCc2ccc3nc(-c4ccccc4)c(Cl)nc3c2)cc1)C(=O)OCC` (configuration not stated), the TGI in test [1] is more than 31.6 µM; in [2], more than 100 µM; in test [3], more than 31.6 µM; in test [4], more than 31.6 µM; in [5], more than 31.6 µM; in [6] it was more than 31.6 µM. The TGI was more than 31.6 µM in [7]; more than 31.6 µM in test [8]; 8.6 µM in [9]; 28.1 µM in [10]; more than 31.6 µM in test [11].

`O=[N+]([O-])c1ccc(N/N=C/c2ccc(OCCCCCCCCCCCO)cc2)c([N+](=O)[O-])c1`: the TGI was 4 µM in [1]; more than 38.9 µM in test [2]; 76.6 µM in test [3]; more than 100 µM in [4]; 31.2 µM in test [5]; 3.22 µM in test [6]. In addition, the TGI in test [7] was more than 100 µM; in test [8], 13.7 µM; in test [9], 4.6 µM; in test [10], 7.62 µM; in test [11] it was 9.6 µM.

With `CC(=O)c1cc2ccccc2oc1=O`, the TGI in test [1], in test [2], in test [3], in test [4], in test [5] and in test [6] was more than 100 µM throughout. For the same compound, the TGI in test [7], in test [8], in test [9], in test [10] and in test [11] was more than 100 µM each time.
